Measurements taken from patent publication US20050009840A1 (SUGEN, INC., priority 2003, published 2005).

target: T1, Met kinase domain (GST fusion protein) (Homo sapiens, UniProt P08581); test: Met transphosphorylation assay (ELISA, poly(glu-tyr) substrate); type: biochemical; conditions: plain numbers in column Met IC50 (μM) of Table 2; read-out: Met IC50;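 further: Cell-free ELISA with plate-bound poly(Glu:Tyr 4:1) phosphorylated by GST-fused Met kinase domain plus ATP and Mn2+, phosphotyrosine detected by anti-phosphotyrosine antibody with HRP and ABTS read-out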
T1 construct: Purified GST fusion protein containing the Met kinase domain
T1 sequence (P08581 1078-1345 limits assumed): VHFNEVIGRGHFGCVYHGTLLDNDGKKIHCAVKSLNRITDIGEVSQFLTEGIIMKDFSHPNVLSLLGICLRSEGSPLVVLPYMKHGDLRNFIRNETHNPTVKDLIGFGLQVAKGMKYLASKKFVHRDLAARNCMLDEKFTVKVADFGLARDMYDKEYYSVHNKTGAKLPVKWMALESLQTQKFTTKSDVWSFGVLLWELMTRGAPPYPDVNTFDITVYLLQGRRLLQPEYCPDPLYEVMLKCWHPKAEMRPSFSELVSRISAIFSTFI
Protocol: General procedure is as follows: a compound is introduced to cells expressing the test kinase, either naturally or recombinantly, for a selected period of time after which, if the test kinase is a receptor, a ligand known to activate the receptor is added. The cells are lysed and the lysate is transferred to the wells of an ELISA plate previously coated with a specific antibody recognizing the substrate of the enzymatic phosphorylation reaction. Non-substrate components of the cell lysate are washed away and the amount of phosphorylation on the substrate is detected with an antibody specifically recognizing phosphotyrosine compared with control cells that were not contacted with a test compound.
Met Transphosphorylation Assay
This assay is used to measure phosphotyrosine levels on a poly(glutamic acid:tyrosine, 4:1) substrate as a means for identifying agonists/antagonists of met transphosphorylation of the substrate.
PBS, Gibco Catalog # 450-1300EB • 4. 50 mM HEPES • 5. […] Purified GST fusion protein containing the Met kinase domain, SUGEN, Inc. • 7. TBST Buffer. • 8. 10% aqueous (MilliQue H2O) DMSO. • 9. […] 2× Kinase Dilution Buffer: for 100 mL, mix 10 mL 1M HEPESat pH 7.5 with 0.4 mL 5% BSA/PBS, 0.2 mL 0.1 M sodium orthovanadate and 1 mL 5M sodium chloride in 88.4 mL dH2O. • 11. 4× ATP Reaction Mixture: for 10 mL, mix 0.4 mL 1 M manganese chloride and 0.02 mL 0.1 M ATP in 9.56 mL dH2O. • 12. 4× Negative Controls Mixture: for 10 mL, mix 0.4 mL 1 M manganese chloride in 9.6 mL dH2O. • 13. […] 500 mM EDTA. • 15. Antibody Dilution Buffer: for 100 mL, mix 10 mL 5% BSA/PBS, 0.5 mL 5% Carnation® Instant Milk in PBS and 0.1 mL 0.1 M sodium orthovanadate in 88.4 mL TBST. • 16. Rabbit polyclonal antophosphotyrosine antibody, SUGEN, Inc. • 17. Goat anti-rabbit horseradish peroxidase conjugated antibody, Biosource, Inc. • 18. ABTS Solution: for 1 L, mix 19.21 g citric acid, 35.49 g Na2HPO4 and 500 mg ABTS with sufficient dH2O to make 1 L. • 19. ABTS/H2O2: mix 15 mL ABST solution with 2μL H2O2 five minutes before use. • 20. 0.2 M HCl Procedure: • 1. Coat ELISA plates with 2 μg Poly(Glu-Tyr) in 100 μL PBS, hold-overnight at 4° C. • 2. Block plate with 150 μL of 5% BSA/PBS for 60 min. • 3. Wash plate twice with PBS then once with 50 mM Hepes buffer pH 7.4. • 4. Add 50 μl of the diluted kinase to all wells. (Purified kinase is diluted with Kinase Dilution Buffer. Final concentration should be 10 ng/well.) • 5. Add 25 μL of the test compound (in 4% DMSO) or DMSO alone (4% in dH2O) for controls to plate. • 6. Incubate the kinase/compound mixture for 15 minutes. • 7. Add 25 μL of 40 mM MnCl2 to the negative control wells. • 8. Add 25 μL ATP/MnCl2 mixture to the all other wells (except the negative controls). Incubate for 5 min. • 9. Add 25 μL 500 mM EDTA to stop reaction. • 10. Wash plate 3× with TBST. • 11. Add 100 μL rabbit polyclonal anti-Ptyr diluted 1:10,000 in Antibody Dilution Buffer to each well. Incubate, with shaking, at room temperature for one hour. • 12. Wash plate 3× with TBST. • 13. […] Add 100 μL per well and incubate at room temperature, with shaking, for one hour. • 14. Wash plate 1× with PBS. • 15. Add 100 μl of ABTS/H2O2 solution to each well. • 16. If necessary, stop the development reaction with the addition of 100 μl of 0.2M HCl per well. • 17.

Q: With CC(Oc1cc(C#CCNC(=O)CN2CCCC2)cnc1N)c1c(Cl)ccc(F)c1Cl (stereo not shown) [Example I-426, N-(3-{8-Amino-5-[1-(2,6-dichloro-3-fluoro-phenyl)-ethoxy]-pyridin-3-yl}-prop-2-ynyl)-2-pyrrolidin-1-yl-acetamide] as the compound, how does the IC50 read?
A: Its IC50 is 0.0091 µM.

Q: Which IC50 does the source give for CC(Oc1cc(C#CCNC(=O)CN2CC[C@@H](O)C2)cnc1N)c1c(Cl)ccc(F)c1Cl (stereo partly drawn) [Example I-427, N-(3-{6-Amino-5-[1-(2,6-dichloro-3-fluoro-phenyl)-ethoxy]-pyridin-3-yl}-prop-2-ynyl)-2-((R)-3-hydroxy-pyrrolidin-1-yl)-acetamide] here?
A: The IC50 was 0.011 µM.

Q: With CC(Oc1cc(C#CCNC(=O)CN2CCC(O)CC2)cnc1N)c1c(Cl)ccc(F)c1Cl (stereo not shown) [Example I-428, N-(3-{6-Amino-5-[1-(2,6-dichloro-3-fluoro-phenyl)-ethoxy]-pyridin-3-yl}-prop-2-ynyl)-2-(4-hydroxy-piperidin-1-yl)-acetamide] as the compound, how does the IC50 read?
A: The IC50 was 0.012 µM.

Q: For CC(Oc1cc(C#CCNC(=O)CN(C)C)cnc1N)c1c(Cl)ccc(F)c1Cl (stereo not shown) [Example I-429, N-(3-{6-Amino-5-[1-(2,6-dichloro-3-fluoro-phenyl)-ethoxy]-pyridin-3-yl}-prop-2-ynyl)-2-dimethylamino-acetamide], which IC50 is on record?
A: The IC50 was 0.022 µM.

Q: How did the IC50 turn out when CCN(CC)CC(=O)NCC#Cc1cnc(N)c(OC(C)c2c(Cl)ccc(F)c2Cl)c1 (stereo not shown) [Example I-430, N-(3-{6-Amino-5-[1-(2,6-dichloro-3-fluoro-phenyl)-ethoxy]-pyridin-3-yl}-prop-2-ynyl)-2-diethylamino-acetamide] was run?
A: The IC50 was 0.013 µM.

Q: With CC(=O)N1CCN(CC(=O)NCC#Cc2cnc(N)c(OC(C)c3c(Cl)ccc(F)c3Cl)c2)CC1 (stereo not shown) [Example I-431, 2-(4-Acetyl-piperazin-1-yl)-N-(3-{6-amino-5-[1-(2,6-dichloro-3-fluoro-phenyl)-ethoxy]pyridin-3-yl}-prop-2-ynyl)-acetamide] as the compound, how does the IC50 read?
A: Its IC50 is 0.027 µM.

Q: Which IC50 does the source give for Nc1ncc(-c2ccccn2)cc1OCc1ccccc1 [Example I-488, 5′-Benzyloxy-[2,3′]bipyridinyl-6′-ylamine] here?
A: The IC50 was over 20 µM.

Q: With Nc1ncc(-c2cncnc2)cc1OCc1ccccc1 [Example I-490, 3-Benzyloxy-5-pyrimidin-5-yl-pyridin-2-ylamine] as the compound, how does the IC50 read?
A: The IC50 was over 20 µM.

Q: How did the IC50 turn out when Nc1ccc(-c2cnc(N)c(OCc3ccccc3)c2)cn1 [Example I-491, 5-Benzyloxy-[3,3′]bipyridinyl-6,6′-diamine] was run?
A: The IC50 was over 20 µM.

Q: How did the IC50 turn out when Nc1ncc(-c2ccccn2)cc1OCc1ccccc1Cl [Example I-492, 5′-(2-Chloro-benzyloxy)-[2,3′]bipyridinyl-6′-ylamine] was run?
A: Its IC50 is 8.24 µM.

Q: With Nc1ncc(-c2cccnc2)cc1OCc1ccccc1Cl [Example I-493] as the compound, how does the IC50 read?
A: The IC50 was 4.6 µM.

Q: Nc1ncc(-c2cncnc2)cc1OCc1ccccc1Cl [Example I-494, 3-(2-Chloro-benzyloxy)-5-pyrimidin-5-yl-pyridin-2-ylamine] was tested. Which IC50 did it give?
A: Its IC50 is 19.3 µM.

Q: For Nc1ccc(-c2cnc(N)c(OCc3ccccc3Cl)c2)cn1 [Example I-495, 5-(2-Chloro-benzyloxy)-[3,3′]bipyridinyl-6,6′-diamine], which IC50 is on record?
A: The IC50 was 4.31 µM.

Q: With Nc1ncc(-c2ccccn2)cc1OCc1ccc(Cl)cc1 [Example I-496, 5′-(4-Chloro-benzyloxy)-[2,3′]bipyridinyl-6′-ylamine] as the compound, how does the IC50 read?
A: The IC50 was 14 µM.

Q: Which IC50 does the source give for Nc1ncc(-c2cccnc2)cc1OCc1ccc(Cl)cc1 [Example I-497, 5-(4-Chloro-benzyloxy)-[3,3′]bipyridinyl-6-ylamine] here?
A: Its IC50 is 14.1 µM.

Q: With Nc1ncc(-c2cncnc2)cc1OCc1ccc(Cl)cc1 [Example I-498, 3-(4-Chloro-benzyloxy)-5-pyrimidin-5-yl-pyridin-2-ylamine] as the compound, how does the IC50 read?
A: Its IC50 is over 20 µM.

Q: For Nc1ccc(-c2cnc(N)c(OCc3ccc(Cl)cc3)c2)cn1 [Example I-499, 5-(4-Chloro-benzyloxy)-[3.3═]bipyridinyl-6,6′-diamine], which IC50 is on record?
A: Its IC50 is over 20 µM.

Q: With Nc1ncc(-c2ccccn2)cc1OCc1c(F)ccc(F)c1Cl [Example I-500, 5′-(2-Chloro-3,6-difluoro-benzyloxy)-[2,3′]bipyridinyl-6′-ylamine] as the compound, how does the IC50 read?
A: Its IC50 is 1.8 µM.

Q: With Nc1ncc(-c2ccncc2)cc1OCc1c(F)ccc(F)c1Cl [Example I-502, 5-(2-Chloro-3,6-difluoro-benzyloxy)-[3,4′]bipyridinyl-6-ylamine] as the compound, how does the IC50 read?
A: The IC50 was 0.211 µM.

Q: Nc1ncc(-c2cncnc2)cc1OCc1c(F)ccc(F)c1Cl [Example I-503, 3-(2-Chloro-3,6-dlfluoro-benzyloxy)-5-pyrimidin-5-yl-pyridin-2-ylamine] was tested. Which IC50 did it give?
A: Its IC50 is 2.15 µM.

Q: With Nc1ccc(-c2cnc(N)c(OCc3c(F)ccc(F)c3Cl)c2)cn1 [Example I-504, 5-(2-Chloro-3,6-difluoro-benzyloxy)-[3,3′]bipyridinyl-6,6′-diamine] as the compound, how does the IC50 read?
A: Its IC50 is 0.209 µM.

Q: With Nc1ncc(-c2ccccn2)cc1OCc1c(Cl)cccc1Cl [Example I-505, 5-′(2,6-Dichloro-benzyloxy)-[2,3′]bipyridinyl-6′-ylamine] as the compound, how does the IC50 read?
A: Its IC50 is 2.84 µM.

Q: Nc1ncc(-c2cccnc2)cc1OCc1c(Cl)cccc1Cl [Example I-506, 5-(2,6-Dichloro-benzyloxy)-[3,3′]bipyridinyl-6-ylamine] was tested. Which IC50 did it give?
A: Its IC50 is 2.71 µM.

Q: Nc1ncc(-c2ccncc2)cc1OCc1c(Cl)cccc1Cl [Example I-507, 5-(2,6-Dichloro-benzyloxy)-[3,4′]bipyridinyl-6-ylamine] was tested. Which IC50 did it give?
A: Its IC50 is 1.3 µM.

Q: With Nc1ncc(-c2cncnc2)cc1OCc1c(Cl)cccc1Cl [Example I-508, 3-(2,6-Dichloro-benzyloxy)-pyrimidin-5-yl-pyridin-2-ylamine] as the compound, how does the IC50 read?
A: The IC50 was 10.3 µM.

Q: How did the IC50 turn out when Nc1ccc(-c2cnc(N)c(OCc3c(Cl)cccc3Cl)c2)cn1 [Example I-509, 5-(2,6-Dichloro-benzyloxy)-[3,3′]bipyridinyl-6,6′-diamine] was run?
A: Its IC50 is 0.578 µM.

Q: With CC(Oc1cc(-c2ccc(N)nc2)cnc1N)c1c(Cl)ccc(F)c1Cl (stereo not shown) [Example I-510, 5-[1-(2,6-Dichloro-3-fluoro-phenyl)-ethoxy]-[3,3′]bipyridinyl-6,6′-diamine] as the compound, how does the IC50 read?
A: The IC50 was 0.0167 µM.

Q: With CC(Oc1cc(-c2cc(C(=O)N3CCN(C)CC3)ccn2)cnc1N)c1c(Cl)ccc(F)c1Cl (stereo not shown) [Example I-511, {6′-Amino-5′-[1-(2,6-dichloro-3-fluoro-phenyl)-ethoxy]-[2,3′]bipyridinyl-4-yl}-(4-methyl-piperazin-1-yl)-methanone] as the compound, how does the IC50 read?
A: Its IC50 is 0.0742 µM.

Q: CC(Oc1cc(-c2cccc(C(=O)N3CCN(C)CC3)n2)cnc1N)c1c(Cl)ccc(F)c1Cl (stereo not shown) [Example I-512, {6′-Amino-5′-[1-(2,6-dichloro-3-fluoro-phenyl)-ethoxy]-[2,3′]bipyridinyl-6-yl}-(4-methyl-piperazin-1-yl)-methanone] was tested. Which IC50 did it give?
A: The IC50 was 0.0629 µM.

Q: Which IC50 does the source give for CC(Oc1cc(-c2cncc(C(=O)N3CCN(C)CC3)c2)cnc1N)c1c(Cl)ccc(F)c1Cl (stereo not shown) [Example I-513, {6′-Amino-5′-[1-(2,6-dichloro-3-fluoro-phenyl)-ethoxy]-[3,3′]bipyridinyl-5-yl}-(4-methyl-piperazin-1-yl)-methanone] here?
A: Its IC50 is 0.034 µM.

Q: Which IC50 does the source give for CC(Oc1cc(-c2ccc(C(=O)N3CCN(C)CC3)nc2)cnc1N)c1c(Cl)ccc(F)c1Cl (stereo not shown) [Example I-514, {6′-Amino-5′-[1-(2,6-dichloro-3-fluoro-phenyl)-ethoxy]-[3,3′]bipyridinyl-6-yl}-(4-methyl-piperazin-1-yl)-methanone] here?
A: Its IC50 is 0.0213 µM.

Q: With CC(Oc1cc(-c2ccnc(C(=O)N3CCN(C)CC3)c2)cnc1N)c1c(Cl)ccc(F)c1Cl (stereo not shown) [Example I-515, {6-Amino-5-[1-(2,6-dichloro-3-fluoro-phenyl)-ethoxy]-[3,4′]bipyridinyl-2′-yl}-(4-methyl-piperazin-1-yl)-methanone] as the compound, how does the IC50 read?
A: The IC50 was 0.0387 µM.

Q: With CC(Oc1cc(-c2ccc(N)nc2)cnc1N)c1c(F)ccc(F)c1Cl (stereo not shown) [Example I-516, 5-[1-(2-Chloro-3,6-difluoro-phenyl)-ethoxy]-[3,3′]bipyridinyl-6,6′-diamine] as the compound, how does the IC50 read?
A: The IC50 was 0.0393 µM.

Q: Which IC50 does the source give for CC(Oc1cc(-c2cc(C(=O)N3CCN(C)CC3)ccn2)cnc1N)c1c(F)ccc(F)c1Cl (stereo not shown) [Example I-518, {6′-Amino-5′-[1-(2-chloro-3,6-difluoro-phenyl)-ethoxy]-[2,3′]bipyridinyl-4-yl}-(4-methyl-piperazin-1-yl)-methanone] here?
A: Its IC50 is 0.209 µM.

Q: How did the IC50 turn out when CC(Oc1cc(-c2cccc(C(=O)N3CCN(C)CC3)n2)cnc1N)c1c(F)ccc(F)c1Cl (stereo not shown) [Example I-519, {6′-Amino-5′-[1-(2-chloro-3,6-difluoro-phenyl)-ethoxy]-[2,3′]bipyridinyl-6-yl}-(4-methyl-piperazin-1-yl)-methanone] was run?
A: The IC50 was 0.466 µM.

Q: CC(Oc1cc(-c2cncc(C(=O)N3CCN(C)CC3)c2)cnc1N)c1c(F)ccc(F)c1Cl (stereo not shown) [Example I-520, {6′-Amino-5′-[1-(2-chloro-3,6-difluoro-phenyl)-ethoxy]-[3,3′]bipyridinyl-5-yl}-(4-methyl-piperazin-1-yl)-methanone] was tested. Which IC50 did it give?
A: Its IC50 is 0.134 µM.

Q: Which IC50 does the source give for CC(Oc1cc(-c2ccc(C(=O)N3CCN(C)CC3)nc2)cnc1N)c1c(F)ccc(F)c1Cl (stereo not shown) [Example I-521, {6′-Amino-5′-[1-(2-chloro-3,6-difluoro-phenyl)-ethoxy]-[3,3′]bipyridinyl-6-yl}-(4-methyl-piperazin-1-yl)-methanone] here?
A: Its IC50 is 0.0716 µM.

Q: For CC(Oc1cc(-c2ccnc(C(=O)N3CCN(C)CC3)c2)cnc1N)c1c(F)ccc(F)c1Cl (stereo not shown) [Example I-522], which IC50 is on record?
A: The IC50 was 0.0626 µM.

Q: Which IC50 does the source give for CC(Oc1cc(-c2ccccn2)cnc1N)c1c(Cl)ccc(F)c1Cl (stereo not shown) [Example I-523, 5′-[1-(2,6-Dichloro-3-fluoro-phenyl)-ethoxy]-[2,3′]bipyridinyl-6′-ylamine] here?
A: The IC50 was 0.0677 µM.

Q: CC(Oc1cc(-c2ccccn2)cnc1N)c1c(F)ccc(F)c1Cl (stereo not shown) [Example I-524, 5′-[1-(2-Chloro-3,6-difluoro-phenyl)-ethoxy]-[2,3′]bipyridinyl-6′-ylamine] was tested. Which IC50 did it give?
A: The IC50 was 0.612 µM.

Q: CC(Oc1cc(-c2cccnc2)cnc1N)c1c(F)ccc(F)c1Cl (stereo not shown) [Example I-525, 5-[1-(2-Chloro-3,6-difluoro-phenyl)-ethoxy]-[3,3′]bipyridinyl-6-ylamine] was tested. Which IC50 did it give?
A: The IC50 was 0.0777 µM.

Q: Which IC50 does the source give for CC(Oc1cc(-c2cncnc2)cnc1N)c1c(F)ccc(F)c1Cl (stereo not shown) [Example I-526, 3-[1-(2-Chloro-3,6-difluoro-phenyl)-ethoxy]-5-pyrimidin-5-yl-pyridin-2-ylamine] here?
A: Its IC50 is 0.552 µM.

Q: Which IC50 does the source give for CC(Oc1cc(-c2ccc(C(=O)N3CCN(C)CC3)cn2)cnc1N)c1c(Cl)ccc(F)c1Cl (stereo not shown) [Example I-527, {6′-Amino-5′-[1-(2,6-dichloro-3-fluoro-phenyl)-ethoxy]-[2,3′]bipyridinyl-5-yl}(4-methyl-piperazin-1-yl)-methanone] here?
A: Its IC50 is 0.0385 µM.
